Laboratory results as given in PMC7041630 (Experimental neurology, 2018).

What was measured:
[1] = test system: pT73-Rab10 in human PBMCs; assay: Ex vivo pT73-Rab10 western blot, human PBMCs; type: cell-based; conditions: 100 nM, two hours
[2] = test system: pT73-Rab10 in human neutrophils; assay: Ex vivo pT73-Rab10 western blot, human neutrophils; type: cell-based; conditions: 100 nM, two hours
[3] = test system: pT73-Rab10 in mouse macrophages; assay: Ex vivo pT73-Rab10 western blot, mouse macrophages; type: cell-based; conditions: 100 nM, two hours
[4] = Single-dose IV/PO pharmacokinetics in rats; type: in vivo, rat; conditions: for bioavailability: oral dosing, 1% methylcellulose vehicle
[5] = Liver microsome stability assay; type: in vitro ADME, macaque; conditions: 2 μM compound, 0.5 mg mL−1 microsomes, with NADPH, one hour
[6] = test system: WT-LRRK2; type: in vivo, rat; conditions: non-transgenic rats; for phospho-LRRK2 in total protein lysates from kidney: higher concentrations of inhibitor; for total LRRK2 protein in the brain: higher concentrations, three days; for total LRRK2 protein in the lung (normalized to HSC70): three days of drug treatment
[7] = Drug properties; type: physicochemical
[8] = test system: LRRK2; conditions: ref Fell et al., 2015, Henderson et al., West; cited from earlier work
[9] = biological target: recombinant human WT-LRRK2 (Homo sapiens, UniProt Q5S007); assay: LanthaScreen LRRKtide phosphorylation assay, WT-LRRK2; type: biochemical; conditions: LanthaScreen at Km,app(ATP)
Chain of recombinant human WT-LRRK2 (Q5S007 whole entry): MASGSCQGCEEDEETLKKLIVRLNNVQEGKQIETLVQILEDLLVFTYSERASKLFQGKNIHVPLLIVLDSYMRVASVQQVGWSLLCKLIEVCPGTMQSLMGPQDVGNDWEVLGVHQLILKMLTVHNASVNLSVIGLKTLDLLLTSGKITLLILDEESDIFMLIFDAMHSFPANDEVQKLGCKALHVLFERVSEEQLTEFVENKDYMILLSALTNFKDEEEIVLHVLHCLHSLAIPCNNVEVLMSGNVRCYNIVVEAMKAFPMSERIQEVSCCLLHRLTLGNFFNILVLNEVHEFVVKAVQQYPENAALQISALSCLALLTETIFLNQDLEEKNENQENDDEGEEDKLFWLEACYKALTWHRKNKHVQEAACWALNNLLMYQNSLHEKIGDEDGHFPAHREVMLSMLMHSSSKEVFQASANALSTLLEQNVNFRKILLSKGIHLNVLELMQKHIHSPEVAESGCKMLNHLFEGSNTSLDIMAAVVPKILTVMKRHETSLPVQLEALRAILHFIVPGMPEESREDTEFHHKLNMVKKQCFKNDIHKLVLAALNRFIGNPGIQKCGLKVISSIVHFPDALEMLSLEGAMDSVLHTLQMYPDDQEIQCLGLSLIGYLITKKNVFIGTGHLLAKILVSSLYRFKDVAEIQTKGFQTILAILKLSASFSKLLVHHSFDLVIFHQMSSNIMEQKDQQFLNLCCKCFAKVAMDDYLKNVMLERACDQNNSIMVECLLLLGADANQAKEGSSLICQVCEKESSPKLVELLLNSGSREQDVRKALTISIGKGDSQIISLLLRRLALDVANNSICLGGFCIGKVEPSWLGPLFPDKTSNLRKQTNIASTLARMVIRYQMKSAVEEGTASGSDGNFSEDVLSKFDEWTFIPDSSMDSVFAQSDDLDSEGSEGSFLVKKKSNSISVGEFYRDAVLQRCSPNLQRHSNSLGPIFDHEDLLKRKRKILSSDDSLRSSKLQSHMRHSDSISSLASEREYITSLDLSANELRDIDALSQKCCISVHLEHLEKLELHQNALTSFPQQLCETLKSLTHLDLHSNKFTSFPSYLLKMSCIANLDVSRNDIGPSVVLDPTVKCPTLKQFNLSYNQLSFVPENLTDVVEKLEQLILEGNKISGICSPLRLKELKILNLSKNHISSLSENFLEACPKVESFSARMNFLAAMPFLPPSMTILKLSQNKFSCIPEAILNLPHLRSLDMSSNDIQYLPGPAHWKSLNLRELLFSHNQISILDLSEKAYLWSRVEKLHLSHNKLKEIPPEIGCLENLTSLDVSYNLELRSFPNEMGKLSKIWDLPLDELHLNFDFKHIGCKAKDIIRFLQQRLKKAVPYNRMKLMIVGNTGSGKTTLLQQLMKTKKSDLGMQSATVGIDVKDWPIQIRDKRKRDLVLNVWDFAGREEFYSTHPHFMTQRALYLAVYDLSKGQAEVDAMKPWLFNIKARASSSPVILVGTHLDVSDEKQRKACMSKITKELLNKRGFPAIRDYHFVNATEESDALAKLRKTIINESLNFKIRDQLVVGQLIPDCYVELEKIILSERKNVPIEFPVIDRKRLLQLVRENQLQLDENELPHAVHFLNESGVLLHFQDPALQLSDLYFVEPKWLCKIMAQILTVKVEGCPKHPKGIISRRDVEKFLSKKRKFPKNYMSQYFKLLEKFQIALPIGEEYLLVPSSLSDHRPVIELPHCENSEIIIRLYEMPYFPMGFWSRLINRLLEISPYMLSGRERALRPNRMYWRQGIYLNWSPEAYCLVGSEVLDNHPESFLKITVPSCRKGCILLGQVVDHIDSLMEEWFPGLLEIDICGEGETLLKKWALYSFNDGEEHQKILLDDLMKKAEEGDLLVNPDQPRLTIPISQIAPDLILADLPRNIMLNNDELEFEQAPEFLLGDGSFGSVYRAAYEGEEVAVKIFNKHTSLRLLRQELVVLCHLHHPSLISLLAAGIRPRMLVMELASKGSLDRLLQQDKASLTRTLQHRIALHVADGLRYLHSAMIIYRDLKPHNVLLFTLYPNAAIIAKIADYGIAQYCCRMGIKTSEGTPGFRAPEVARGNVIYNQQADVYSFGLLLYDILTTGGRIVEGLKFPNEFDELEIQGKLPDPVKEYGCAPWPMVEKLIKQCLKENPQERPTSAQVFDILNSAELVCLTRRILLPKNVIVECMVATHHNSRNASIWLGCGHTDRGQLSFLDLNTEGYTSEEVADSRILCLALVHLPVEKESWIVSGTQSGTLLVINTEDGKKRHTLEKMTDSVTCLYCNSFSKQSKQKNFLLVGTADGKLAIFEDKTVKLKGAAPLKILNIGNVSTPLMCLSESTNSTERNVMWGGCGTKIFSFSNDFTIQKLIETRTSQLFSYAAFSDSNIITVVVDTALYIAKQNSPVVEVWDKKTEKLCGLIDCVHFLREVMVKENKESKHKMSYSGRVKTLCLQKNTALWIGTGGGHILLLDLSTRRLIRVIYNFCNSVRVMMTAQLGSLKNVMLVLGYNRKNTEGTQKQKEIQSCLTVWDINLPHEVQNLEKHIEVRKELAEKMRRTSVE

[10] = In-diet dosing, plasma drug levels in rats; type: in vivo, rat; conditions: chow up to 1050 mg kg−1

Structure (SMILES)	pRab10 signal [1]	pT73-Rab10 signal [2]	pT73-Rab10 signal [3]	brain penetrant [4]	bioavailability [4]	microsomal stability, compound remaining [5]	phospho-LRRK2 in total protein lysates from kidney [6]	total LRRK2 protein in the brain [6]	total LRRK2 protein in the lung (normalized to HSC70) [6]	aqueous solubility ([7]; compared to PF-360)	binding in vitro [8]	brain-to-plasma ratio (total compound) [4]	correlation of plasma to brain concentrations (r) ([4]; total compound)	lipophilicity ([7]; compared to MLi2)	more potent in blocking LRRKtide phosphorylation than autophosphorylation [9]	highest plasma concentration achieved with in-diet dosing [10] [nM]
C[C@@H]1CN(c2cc(-c3n[nH]c4ccc(OC5(C)CC5)cc34)ncn2)C[C@H](C)O1 [MLi2]	could not observe a reliable reduction in pRab10	virtually eliminated pT73-Rab10 signal	virtually eliminated pT73-Rab10 signal	~ 75%	~ 40%	no significant concentrations of compound left after one-hour incubation	essentially no phospho-LRRK2 remaining	did not show these trends	did not reduce	poor	low to sub-nanomolar					
Cn1cc(-c2c[nH]c3ncnc(N4CCOCC4)c23)cc1C#N [PF-360]					~ 40%	no significant concentrations of compound left after one-hour incubation	essentially no phospho-LRRK2 remaining	reduce total LRRK2 protein in the brain nearly to the same extent as reducing the amount of phosphorylated LRRK2 protein	did not reduce		low to sub-nanomolar	0.48±0.03	0.89	lower lipophilicity	~ 1 order of magnitude	≤ 100
